“Also recorded” adds a separate entry of the source. Like-named read-outs stand apart in the source and are kept apart here.
Tests used:
[1] = system: HeLa (cervical carcinoma); experiment: 72-hour IC50 determination for adherent cells using sulforhodamine B (SRB); type: cell-based, human; settings: 72-hour exposure
How it was run: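 HeLa cells were seeded at 5,000 cells/well in RPMI-1640 with 10% FBS and exposed continuously for 72 hours to compounds on a half-log scale (1% DMSO final, triplicate). Cells were then TCA-fixed, stained with sulforhodamine B and read at 510 nm. IC50 values came from three or more independent experiments.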

U-937 cells = experiment: Apoptosis in U-937 cells with Annexin V-FITC and propidium iodide (AnnV/PI), flow cytometry; type: cell-based, human; settings: 24 hours, compounds at 100-times their 72-hour IC50
Procedure: DMSO stocks of compounds were added to a 24-well plate in singlicate (0.2% DMSO final). After compound addition, 0.5 mL of a U-937 cell suspension (250,000 cells/mL) was added and allowed to incubate for 24 hours. Following treatment, the cell suspensions were transferred to flow cytometry tubes and pelleted (500 g, 3 min). The media was removed by aspiration, and cells were re-suspended in 200 μL AnnV binding buffer (10 mM HEPES, pH 7.4, 140 mM NaCl, 2.5 mM CaCl2) with 5 μg/mL PI and 1:90 dilution of AnnV. Samples were analyzed using flow cytometry.

human cancer cell lines = experiment: Anticancer activity in human cancer cell lines, not tied to one cell line; type: cell-based; settings: for anticancer activity, in words: human cancer cell lines, 72-hour exposure
How it was run: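 Cells exposed 72 h to compound on a half-log scale (1% DMSO final); adherent lines (HeLa, H460, 786-O, MCF7) read by SRB staining at 510 nm, U-937 by MTS/PMS absorbance at 490 nm. IC50 from three or more independent experiments.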

MCF-7 (breast carcinoma) = experiment: 72-hour IC50 determination for adherent cells using sulforhodamine B (SRB); type: cell-based, human; settings: error is standard deviation of the mean, n ≧ 3, read-out: MCF-7, 72-hour IC50 (Table E1-2)
Procedure: (§1) Certain provided compounds were tested in culture against a panel of three supplementary human cancer cell lines representing three additional tumor histologies (H460, lung carcinoma; 786-O, renal carcinoma; MCF-7, breast carcinoma). As shown in Table E1-2, the ETPs retain their potency across the cell lines. In some embodiments, a provided compound is active in all cell lines. In some embodiments, a provide compound can be used to selectively target certain cells and/or cancers. […] Without the intention to be limited, Applicant notes that certain cell lines could be more sensitive to provided compounds; for example, U-937 and HeLa are slightly more sensitive to the ETPs than the other three cell lines.
(§2) Cells were grown in media supplemented with fetal bovine serum (FBS) and antibiotics ([…]). Specifically, experiments were performed using the following cell lines and media compositions: U-937, HeLa, H460, and 786-O (RPMI-1640+10% FBS), and MCF7 (EMEM+10% FBS). Cells were incubated at 37° C. in a 5% CO2, 95% humidity atmosphere.
(§3) Adherent cells (HeLa, H460, 786-O, and MCF7) were added into 96-well plates (5,000 cells/well for HeLa cell line; 2,000 cells/well for H460, 786-O, and MCF7 cell lines) in 100 μL media and were allowed to adhere for 2-3 hours. Compounds were solubilized in DMSO as 100× stocks, added directly to the cells (100 μL final volume), and tested over a range of concentrations in triplicate (1% DMSO final) on a half-log scale. Concentrations tested ranged from […] to 10 μM, depending on the potency of the compound. DMSO and cell-free wells served as the live and dead control, respectively. After 72 hours of continuous exposure, the plates were evaluated using the SRB colorimetric assay as described previously (Vichai, V.; Kirtikara, K. Nature Prot. 2006, 1, 1112). Briefly, media was removed from the plate, and cells were fixed by the addition of 100 μL cold 10% trichloroacetic acid in water. After incubating at 4° C. for an hour, the plates were washed in water and allowed to dry. Sulforhodamine B was added as a 0.057% solution in 1% acetic acid (100 μL), and the plates were incubated at room temperature for 30 minutes, washed in 1% acetic acid, and allowed to dry. The dye was solubilized by adding 10 mM Tris base solution (pH 10.5, 200 μL) and incubating at room temperature for 30 minutes. Plates were read at λ=510 nm. IC50 values were determined from three or more independent experiments using TableCurve (San Jose, Calif.).

786-O (renal carcinoma) = experiment: as above; type: cell-based, human; settings: error is standard deviation of the mean, n ≧ 3, read-out: 786-O, 72-hour IC50 (Table E1-2)
Procedure: as §1, §2, §3

H460 (lung carcinoma) = experiment: as above; type: cell-based, human; settings: error is standard deviation of the mean, n ≧ 3, read-out: H460, 72-hour IC50 (Table E1-2)
Procedure: as §1, §2, §3

[2] = system: U-937 (hystiocytic lymphoma); experiment: 72-hour IC50 determination for non-adherent cells using MTS; type: cell-based, human; settings: 72-hour exposure
How it was run: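 U-937 cells (5,000/well) in RPMI-1640 + 10% FBS were exposed to compounds in triplicate (1% DMSO final) for 72 h at 37 °C. Viability was read by PMS/MTS absorbance at 490 nm, with DMSO wells as live and cell-free wells as dead controls. IC50 came from three or more independent experiments.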

[3] = Solubility observed on isolation; settings: in CH2Cl2, CHCl3, EtOAc, MeOH, DMSO
[4] = Stability observed on isolation (concentration / solution); settings: observed during isolation and characterization
[5] = SRB, error is standard deviation of the mean, n ≧ 3, read-out: HeLa, 72-hour IC50 (Table E1-1)
[6] = SRB, error is standard deviation of the mean, n ≧ 3, read-out: HeLa, 72-hour IC50 (Table E1-2)
[7] = MTS, error is standard deviation of the mean, n ≧ 3, read-out: U-937, 72-hour IC50 (Table E1-1)
[8] = MTS, error is standard deviation of the mean, n ≧ 3, read-out: U-937, 72-hour IC50 (Table E1-2)
[9] = Homo sapiens, HeLa, SRB, error is standard deviation of the mean, n ≧ 3, read-out: HeLa, 72-hour IC50 (Table E1-1)
[10] = Homo sapiens, U-937, MTS, error is standard deviation of the mean, n ≧ 3, read-out: U-937, 72-hour IC50 (Table E1-1)

| Structure (SMILES) | IC50 [1, 5] | IC50 [1, 6] | induction of apoptosis (phosphatidylserine exposure / propidium iodide inclusion) (U-937 cells) | anticancer activity, in words (human cancer cell lines) | IC50 (MCF-7 (breast carcinoma); 72-hour exposure) | IC50 (786-O (renal carcinoma); 72-hour exposure) | IC50 (H460 (lung carcinoma); 72-hour exposure) | IC50 [2, 7] | IC50 [2, 8] | IC50 [1, 9] | IC50 [2, 10] | further results |
| --- | --- | --- | --- | --- | --- | --- | --- | --- | --- | --- | --- | --- |
| CN1C(=O)[C@@]23C[C@]4([C@]56C[C@@]78SSS[C@@](CO)(C(=O)N7[C@H]5Nc5ccccc56)N(C)C8=O)c5ccccc5N[C@@H]4N2C(=O)[C@]1(CO)SSS3 [Compound 5, (+)-chaetocin C] | 6.3 ± 0.6 nM | 6.3 ± 0.6 nM | induce caspase-dependent apoptotic cell death; also recorded: induce apoptosis | active across the board | 27 ± 11 nM | 14.6 ± 0.8 nM | 26 ± 9.3 nM | 0.75 ± 0.13 nM | 0.75 ± 0.13 nM | – | – | – |
| CN1C(=O)[C@@]23C[C@]4([C@]56C[C@@]78SS[C@@](C)(C(=O)N7[C@H]5N(S(=O)(=O)c5ccccc5)c5ccccc56)N(C)C8=O)c5ccccc5N(S(=O)(=O)c5ccccc5)[C@@H]4N2C(=O)[C@]1(C)SS3 [Compound 14, Dimeric epidithiodiketopiperazine] | 0.09 ± 0.06 nM | 0.09 ± 0.06 nM | induce caspase-dependent apoptotic cell death; also recorded: induce apoptosis | active across the board | 1.65 ± 0.51 nM | 1.55 ± 0.77 nM | 1.53 ± 0.85 nM | 0.18 ± 0.06 nM | 0.18 ± 0.06 nM | – | – | IC50 ([1]; read-out: IC50 (HeLa)): 0.09 nM; potency relative to (+)-12,12′-dideoxyverticillin A (3) (human cancer cell lines; more potent than the corresponding secondary aniline 3): 2 orders of magnitude; IC50 ([2]; read-out: IC50 (U-937)): 0.18 nM |
| CN1C(=O)[C@@]23C[C@]4(c5c[nH]c6ccccc56)c5ccccc5N(S(=O)(=O)c5ccccc5)[C@@H]4N2C(=O)[C@@H]1S3 [Compound 25, C3-(Indol-3′-yl)epimonothiodiketopiperazine] | – | – | – | – | – | – | – | – | – | 1480 ± 182 nM | 710 ± 134 nM | solubility [3]: Limited solubility |
| CN1C(=O)C23CC4(c5c[nH]c6ccccc56)c5ccccc5N(S(=O)(=O)c5ccccc5)C4N2C(=O)C1SS3 (centres unmarked) [Compound 26, C3-(Indol-3′-yl) epidithiodiketopiperazine] | 41.7 ± 5.7 nM | 41.7 ± 5.7 nM | induce caspase-dependent apoptotic cell death; also recorded: induce apoptosis | – | 67 ± 19 nM | 62.7 ± 7.6 nM | 66 ± 19 nM | 2.8 ± 0.3 nM | 2.8 ± 0.3 nM | – | – | – |
| CN1C(=O)C23CC4(c5c[nH]c6ccccc56)c5ccccc5N(S(=O)(=O)c5ccccc5)[C@@H]4N2C(=O)[C@H]1SC(=S)S3 (some centres unmarked) [Compound 36, C3-(Indol-3′-yl)dithiepanethione] | – | – | – | competent anticancer agents | – | – | – | – | – | 33 ± 13 nM | 3.8 ± 0.9 nM | stability upon concentration or in solution [4]: tends to degrade; IC50 ([1]; Homo sapiens, HeLa, SRB, error is standard deviation of the mean, n ≧ 3, read-out: HeLa, 72-hour IC50 (Table E1-2)): 33 ± 13 nM; IC50 (MCF-7 (breast carcinoma); Homo sapiens, MCF7, 72-hour exposure): 163 ± 7 nM; IC50 (786-O (renal carcinoma); Homo sapiens, 786-0, 72-hour exposure): 133 ± 10 nM; IC50 (H460 (lung carcinoma); Homo sapiens, NCI-H460, 72-hour exposure): 190 ± 61 nM; IC50 ([2]; Homo sapiens, U-937, MTS, error is standard deviation of the mean, n ≧ 3, read-out: U-937, 72-hour IC50 (Table E1-2)): 3.8 ± 0.9 nM |

From patent US9353150B2, “Substituted pyrazino[1′,2′:1 ,5]pyrrolo[2,3-b]-indole-1,4-diones for cancer treatment” (Massachusetts Institute of Technology, priority 2012, dated 2016)
